Source: publication PMC11704008 (Scientific Reports, 2025)
In brackets after ≈: the same amount, converted by molar mass. Like-named read-outs stand apart in the source and are kept apart here.

Legend:
[1] = assay type: physicochemical
[2] = assay type: physicochemical; remark: listed apart in the source

## C[C@](N)(Cc1ccc(O)c(O)c1)C(=O)O [methyldopa, Methyldopa]
[1]; 313 K, 12 MPa, CO2 density 719.2 kg.m^−3
  y × 10^5 (mole fraction in ScCO2): 2.481
[1]; 313 K, 15 MPa, CO2 density 781.2 kg.m^−3
  y × 10^5 (mole fraction in ScCO2): 3.013
[1]; 313 K, 18 MPa, CO2 density 820.7 kg.m^−3
  y × 10^5 (mole fraction in ScCO2): 3.942
[1]; 313 K, 21 MPa, CO2 density 850.4 kg.m^−3
  y × 10^5 (mole fraction in ScCO2): 4.531
[1]; 313 K, 24 MPa, CO2 density 873.9 kg.m^−3
  y × 10^5 (mole fraction in ScCO2): 5.520
[1]; 313 K, 27 MPa, CO2 density 893.5 kg.m^−3
  y × 10^5 (mole fraction in ScCO2): 6.320
[1]; 313 K, 30 MPa, CO2 density 910.3 kg.m^−3
  y × 10^5 (mole fraction in ScCO2): 7.652
[1]; 323 K, 12 MPa, CO2 density 587.2 kg.m^−3
  y × 10^5 (mole fraction in ScCO2): 1.880
[1]; 323 K, 15 MPa, CO2 density 701.1 kg.m^−3
  y × 10^5 (mole fraction in ScCO2): 3.390
[1]; 323 K, 18 MPa, CO2 density 758.8 kg.m^−3
  y × 10^5 (mole fraction in ScCO2): 4.490
[1]; 323 K, 21 MPa, CO2 density 797.4 kg.m^−3
  y × 10^5 (mole fraction in ScCO2): 5.910
[1]; 323 K, 24 MPa, CO2 density 826.1 kg.m^−3
  y × 10^5 (mole fraction in ScCO2): 7.114
[1]; 323 K, 27 MPa, CO2 density 851.7 kg.m^−3
  y × 10^5 (mole fraction in ScCO2): 7.790
[1]; 323 K, 30 MPa, CO2 density 871.5 kg.m^−3
  y × 10^5 (mole fraction in ScCO2): 8.832
[1]; 333 K, 12 MPa, CO2 density 435.3 kg.m^−3
  y × 10^5 (mole fraction in ScCO2): 1.520
[1]; 333 K, 15 MPa, CO2 density 606.8 kg.m^−3
  y × 10^5 (mole fraction in ScCO2): 2.841
[1]; 333 K, 18 MPa, CO2 density 688.4 kg.m^−3
  y × 10^5 (mole fraction in ScCO2): 5.090
[1]; 333 K, 21 MPa, CO2 density 740.3 kg.m^−3
  y × 10^5 (mole fraction in ScCO2): 7.050
[1]; 333 K, 24 MPa, CO2 density 777.5 kg.m^−3
  y × 10^5 (mole fraction in ScCO2): 8.125
[1]; 333 K, 27 MPa, CO2 density 806.7 kg.m^−3
  y × 10^5 (mole fraction in ScCO2): 9.163
[1]; 333 K, 30 MPa, CO2 density 830.5 kg.m^−3
  y × 10^5 (mole fraction in ScCO2): 9.960
[1]; 343 K, 12 MPa, CO2 density 346.1 kg.m^−3
  y × 10^5 (mole fraction in ScCO2): 0.805
[1]; 343 K, 15 MPa, CO2 density 507.5 kg.m^−3
  y × 10^5 (mole fraction in ScCO2): 2.043
[1]; 343 K, 18 MPa, CO2 density 613.5 kg.m^−3
  y × 10^5 (mole fraction in ScCO2): 5.410
[1]; 343 K, 21 MPa, CO2 density 678.9 kg.m^−3
  y × 10^5 (mole fraction in ScCO2): 7.484
[1]; 343 K, 24 MPa, CO2 density 724.9 kg.m^−3
  y × 10^5 (mole fraction in ScCO2): 8.632
[1]; 343 K, 27 MPa, CO2 density 760.3 kg.m^−3
  y × 10^5 (mole fraction in ScCO2): 10.061
[1]; 343 K, 30 MPa, CO2 density 788.9 kg.m^−3
  y × 10^5 (mole fraction in ScCO2): 11.345
[1]; solubility S in ScCO2, range over all conditions, 12–30 MPa, 313–343 K
  solubility at 5 h: 13.4 to 428 µg/mL (≈ 63.4 to 2030 µM)
[2]; difference between ΔHvap and ΔHtotal
  solvation heat (ΔHsol): -5.382 kcal/mol
[2]; methyldopa in ScCO2
  total heat (∆Htotal), Chrastil model: 8.21 kcal/mol
  vaporization heat (∆Hvap), Bartle et al. model: 13.59 kcal/mol
